Measurements as given in publication PMC8398451, “Molecular Engineering of Curcumin, an Active Constituent of Curcuma longa L. (Turmeric) of the Family Zingiberaceae with Improved Antiproliferative Activity” (Plants, 2021).

Key:
HL-60(TB) = test: cells; type: cell-based
K-562 = test: NCI antiproliferative SRB assay, Leukemia panel; type: cell-based, Human
HOP-62 = test: NCI antiproliferative SRB assay, Non-Small Cell Lung Cancer panel; type: cell-based, Human
NCI-H322M = test: as above; type: cell-based, Human
NCI-H522 = test: as above; type: cell-based, Human
HT29 = test: NCI antiproliferative SRB assay, Colon Cancer panel; type: cell-based, Human
KM12 = test: as above; type: cell-based, Human
SW-620 = test: as above; type: cell-based, Human
SF-295 = test: NCI antiproliferative SRB assay, CNS Cancer panel; type: cell-based, Human
SF-539 = test: NCI antiproliferative SRB assay, CNS Cancer panel; type: cell-based, Human
SNB-19 = test: NCI antiproliferative SRB assay, CNS Cancer panel; type: cell-based, Human
SNB-75 = test: NCI antiproliferative SRB assay, CNS Cancer panel; type: cell-based, Human
MDA-MB-435 = test: NCI antiproliferative SRB assay, Melanoma panel; type: cell-based
UACC-257 = test: NCI antiproliferative SRB assay, Melanoma panel; type: cell-based, Human
UACC-62 = test: NCI antiproliferative SRB assay, Melanoma panel; type: cell-based, Human; conditions: 5-dose 0.01-100 µM
[1] = Homo sapiens, 5-dose 0.01-100 µM
[2] = Homo sapiens, 5-dose 0.01-100 µM, read-out: LC50 (the source's name)

Molecule `COc1cc(/C=C/c2cc(/C=C/c3ccc(O)c(OC)c3)n(C(=O)Nc3ccc(C(F)(F)F)cc3)n2)ccc1O` [3c] has a TGI (HL-60(TB); 5-dose 0.01-100 µM) of 6.45 µM, a GI50 (HL-60(TB); [1]) of 1.98 µM and a CC50 (HL-60(TB); [2]) of over 100 µM. For the same molecule, the “%GI” value (HL-60(TB); one dose 10 µM) was 84.83%, the “GP (growth percent)” value (HL-60(TB); one dose 10 µM) was 15.17 and the TGI (K-562; 5-dose 0.01-100 µM) was over 100 µM. The GI50 (K-562; Homo sapiens, K562, 5-dose 0.01-100 µM) was 2.53 µM, the CC50 (K-562; Homo sapiens, K562, 5-dose 0.01-100 µM, read-out: LC50 (the source's name)) was over 100 µM and the “%GI” value (K-562; one dose 10 µM) was 90.55%. The “GP (growth percent)” value (K-562; one dose 10 µM) was 9.45, the TGI (HOP-62; 5-dose 0.01-100 µM) was 16.2 µM and the GI50 (HOP-62; [1]) was 3.6 µM. The CC50 (HOP-62; [2]) was over 100 µM, the “%GI” value (HOP-62; one dose 10 µM) was 37.13% and the “GP (growth percent)” value (HOP-62; one dose 10 µM) was 62.87. The TGI (NCI-H322M; 5-dose 0.01-100 µM) was 12.9 µM, the GI50 (NCI-H322M; [1]) was 3.25 µM and the CC50 (NCI-H322M; [2]) was 49.6 µM. For the same molecule, the “%GI” value (NCI-H322M; one dose 10 µM) was 17.30%, the “GP (growth percent)” value (NCI-H322M; one dose 10 µM) was 82.70 and the TGI (NCI-H522; 5-dose 0.01-100 µM) was 4.65 µM. For the same molecule, the GI50 (NCI-H522; [1]) was 1.78 µM, the CC50 (NCI-H522; [2]) was 40.8 µM and the “%GI” value (NCI-H522; one dose 10 µM) was 92.68%. For the same molecule, the “GP (growth percent)” value (NCI-H522; one dose 10 µM) was 7.32, the TGI (HT29; 5-dose 0.01-100 µM) was 4.13 µM and the GI50 (HT29; Homo sapiens, HT-29, 5-dose 0.01-100 µM) was 2.02 µM. The CC50 (HT29; Homo sapiens, HT-29, 5-dose 0.01-100 µM, read-out: LC50 (the source's name)) was 8.44 µM, the “%GI” value (HT29; one dose 10 µM) was 96.50% and the “GP (growth percent)” value (HT29; one dose 10 µM) was 3.50. For the same molecule, the TGI (KM12; 5-dose 0.01-100 µM) was 5.59 µM, the GI50 (KM12; [1]) was 2.33 µM and the CC50 (KM12; [2]) was 54 µM. For the same molecule, the “%GI” value (KM12; one dose 10 µM) was 58.62%, the “GP (growth percent)” value (KM12; one dose 10 µM) was 41.38 and the TGI (SW-620; 5-dose 0.01-100 µM) was 5.90 µM. For the same molecule, the GI50 (SW-620; [1]) was 2.56 µM, the CC50 (SW-620; [2]) was 33.6 µM and the “%GI” value (SW-620; one dose 10 µM) was 82.00%. For the same molecule, the “GP (growth percent)” value (SW-620; one dose 10 µM) was 18.00, the TGI (SF-295; 5-dose 0.01-100 µM) was 9.85 µM and the GI50 (SF-295; [1]) was 2.89 µM. For the same molecule, the CC50 (SF-295; [2]) was 76.5 µM, the “%GI” value (SF-295; one dose 10 µM) was 16.58% and the “GP (growth percent)” value (SF-295; one dose 10 µM) was 83.42. For the same molecule, the TGI (SF-539; 5-dose 0.01-100 µM) was 7.45 µM, the GI50 (SF-539; [1]) was 2.37 µM and the CC50 (SF-539; [2]) was 56 µM. For the same molecule, the “%GI” value (SF-539; one dose 10 µM) was 70.99%, the “GP (growth percent)” value (SF-539; one dose 10 µM) was 29.01 and the TGI (SNB-19; 5-dose 0.01-100 µM) was 11.2 µM. For the same molecule, the GI50 (SNB-19; [1]) was 3.16 µM, the CC50 (SNB-19; [2]) was 36.9 µM and the “%GI” value (SNB-19; one dose 10 µM) was 51.32%. For the same molecule, the “GP (growth percent)” value (SNB-19; one dose 10 µM) was 48.68, the TGI (SNB-75; 5-dose 0.01-100 µM) was 66.0 µM and the GI50 (SNB-75; [1]) was 2.99 µM. The CC50 (SNB-75; [2]) was over 100 µM, the “%GI” value (SNB-75; one dose 10 µM) was 28.20% and the “GP (growth percent)” value (SNB-75; one dose 10 µM) was 71.80. It also gave a TGI (MDA-MB-435; 5-dose 0.01-100 µM) of 7.06 µM, a GI50 (MDA-MB-435; Homo sapiens) of 2.35 µM and a CC50 (MDA-MB-435; [2]) of 33.4 µM. The “%GI” value (MDA-MB-435; one dose 10 µM) was 72.15%, the “GP (growth percent)” value (MDA-MB-435; one dose 10 µM) was 27.85 and the TGI (UACC-257; 5-dose 0.01-100 µM) was 14.0 µM. For the same molecule, the GI50 (UACC-257; [1]) was 4.01 µM, the CC50 (UACC-257; [2]) was 42 µM and the “%GI” value (UACC-257; one dose 10 µM) was 74.99%. The “GP (growth percent)” value (UACC-257; one dose 10 µM) was 25.01 and the TGI (UACC-62) was 4.76 µM.
